The text below walks through data of patent US12612384B2, “Heterocyclic CYP4A inhibitor compounds and compositions thereof” (MBD CO., LTD., priority 2021, dated 2026).

The target in the first experiment is T1, CYP4A (Homo sapiens, UniProt Q02928).
T1 construct: purchased; host or cells: bacterial membranes ('bactosome')
T1 sequence (Q02928 5-519): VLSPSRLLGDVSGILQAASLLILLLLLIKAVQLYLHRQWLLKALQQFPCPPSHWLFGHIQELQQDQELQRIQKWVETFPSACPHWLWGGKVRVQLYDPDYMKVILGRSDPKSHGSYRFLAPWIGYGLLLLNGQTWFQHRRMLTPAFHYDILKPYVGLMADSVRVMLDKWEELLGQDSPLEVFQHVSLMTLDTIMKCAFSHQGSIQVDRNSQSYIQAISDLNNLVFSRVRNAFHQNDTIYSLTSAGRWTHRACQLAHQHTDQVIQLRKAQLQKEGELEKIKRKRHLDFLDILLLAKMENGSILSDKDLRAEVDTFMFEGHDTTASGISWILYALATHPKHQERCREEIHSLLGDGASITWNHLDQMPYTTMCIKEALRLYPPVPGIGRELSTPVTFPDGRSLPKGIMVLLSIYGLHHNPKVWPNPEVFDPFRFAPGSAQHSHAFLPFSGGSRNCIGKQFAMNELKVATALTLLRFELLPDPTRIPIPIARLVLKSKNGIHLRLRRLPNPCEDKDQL
Put plainly: CYP4A enzyme assay (luminescence, Luciferin-ME). In kind it is biochemical. The following applies: Compound concentration 5 μM; 50%-70%; read-out: % Inhibition 50%-70%. As for the experimental part: The CYP4A inhibitory activity of the above compounds of the examples was measured. The reagents used in the experiment were commercially available, and were prepared and used when necessary. The device used for measuring activity was SpectraMax of MOLECULAR DEVICES.
CYP4A bactosome and the compounds to be evaluated (5 μM) were each diluted in assay buffer (100 mM KPO4, 0.1% BSA, 1 mM DTT) and mixed in a 384 well plate (white opaque polystyrene nontreated flat-bottom well), and reaction was carried out at room temperature for 15 minutes. To induce CYP4A reaction, 5 mM Luciferin-ME, NADPH Regeneration system (10× sol. A, 20× sol. B in assay buffer, Cat. Number: V865B, Promega) were sequentially added and mixed, and the reaction was carried out at room temperature for 30 minutes. Then, Luciferin Detection reagent was added thereto and reacted at room temperature for 15 minutes to stop the CYP4A reaction and induce a luminescence reaction. Finally, after measuring the luminescence value using a microplate reader, the inhibition of CYP4A activity by the compounds was evaluated by comparing the luminescence value from each well.
By inhibition is commonly meant the relative decrease from the control value, in per cent. Turning to `O=C(C1CCCN(S(=O)(=O)c2cccnc2)C1)N1CCN(c2cc(C(F)(F)F)nc3ccccc23)CC1` (stereo not drawn) [Example 129, (1-(pyridin-3-ylsulfonyl)piperidin-3-yl)(4-(2-(trifluoromethyl)quinolin-4-yl)piperazin-1-yl)methanone], the inhibition at 5 µM was in the range of 50 to 70%. Same read-out and setting: the result for `COc1ccc(C(=O)N2CCCC(C(=O)N3CCN(c4ccnc5cc(OC)ccc45)CC3)C2)cc1` (stereo not drawn) [Example 94, (4-(7-methoxyquinolin-4-yl)piperazin-1-yl)(1-(4-methoxyphenylcarbonyl)piperidin-3-yl)methanone] reads 50 to 70%. The same measure, in the same setting: the result for `Cn1cnnc1CN1CC[C@H](C(=O)N2CCN(c3ccnc4cc(F)ccc34)CC2)C1` [Example 154, (S)-(4-(7-fluoroquinolin-4-yl)piperazin-1-yl)(1-((4-methyl-4H-1,2,4-triazol-3-yl)methyl)pyrrolidin-3-yl)methanone] reads 50 to 70%; that for `O=C(c1ccccc1)N1CCCC(C(=O)N2CCN(c3ccnc4ccccc34)CC2)C1` (stereo not drawn) [Example 113, (1-benzoylpiperidin-3-yl)(4-(quinolin-4-yl)piperazin-1-yl)methanone], 50 to 70%; that for `O=C(c1ccncc1)N1CCCC(C(=O)N2CCN(c3cc(C(F)(F)F)nc4ccccc34)CC2)C1` (stereo not drawn) [Example 98, (1-isonicotinoylpiperidin-3-yl)(4-(2-(trifluoromethyl)quinolin-4-yl)piperazin-1-yl)methanone], 50 to 70%.

Staying with this experiment, now noted: Compound concentration 5 μM; 70%-90%; read-out: % Inhibition 70%-90%.
For the compound `O=C(C1CCCN(S(=O)(=O)c2ccc(F)cc2)C1)N1CCN(c2ncnc3ccccc23)CC1` (stereo not drawn) [Example 76, (1-((4-fluorophenyl)sulfonyl)piperidin-3-yl)(4-(quinazolin-4-yl)piperazin-1-yl)methanone], the inhibition at 5 µM lay within 70 to 90%. The same measure, in the same setting: the figure for `NCCn1ccnc1S(=O)(=O)N1CC[C@H](C(=O)N2CCN(c3ccnc4cc(F)ccc34)CC2)C1` [Example 150, (S)-(1-((1-(2-aminoethyl)-1H-imidazol-2-yl)sulfonyl)pyrrolidin-3-yl)(4-(7-fluoroquinolin-4-yl)piperazin-1-yl)methanone] is 70 to 90%; for `O=C([C@H]1CCN(S(=O)(=O)c2ncn[nH]2)C1)N1CCN(c2ccnc3c(F)cccc23)CC1` [Example 138, (S)-(1-((1H-1,2,4-triazol-5-yl)sulfonyl)pyrrolidin-3-yl)(4-(8-fluoroquinolin-4-yl)piperazin-1-yl)methanone] it is 70 to 90%; for `O=C(C1CCN(S(=O)(=O)c2ccc(Cl)nc2)C1)N1CCN(c2ccnc3ccccc23)CC1` (stereo not drawn) [Example 24, (1-((6-chloropyridin-3-yl)sulfonyl)pyrrolidin-3-yl)(4-(quinolin-4-yl)piperazin-1-yl)methanone] it is 70 to 90%.

In the case of `O=C(c1ccccc1)N1CCCC(C(=O)N2CCN(c3ccnc4cc(Cl)ccc34)CC2)C1` (stereo not drawn) [Example 85, (4-(7-chloroquinolin-4-yl)piperazin-1-yl)(1-(phenylcarbonyl)piperidin-3-yl)methanone], the inhibition at 5 µM lay in the range of 70 to 90%. Still for that read-out and setting: the figure for `O=C(c1ccncc1)N1CCCC(C(=O)N2CCN(c3ccnc4ccccc34)CC2)C1` (stereo not drawn) [Example 115, (1-isonicotinoylpiperidin-3-yl)(4-(quinolin-4-yl)piperazin-1-yl)methanone] is 70 to 90%; for `CC(=O)Nc1ccc(C(=O)N2CCCC(C(=O)N3CCN(c4ccnc5cc(F)ccc45)CC3)C2)cc1` (stereo not drawn) [Example 105, N-(4-(3-(4-(7-fluoroquinolin-4-yl)piperazine-1-carbonyl)piperidine-1-carbonyl)phenyl)acetamide] it is 70 to 90%.

Still in this experiment, the particulars now being: Compound concentration 5 μM; Greater than 90%; read-out: % Inhibition Greater than 90%.
Consider `CC(=O)Nc1nc(C)c(S(=O)(=O)N2CC[C@@H](C(=O)N3CCN(c4ccnc5ccccc45)CC3)C2)s1` [Example 48, (R)—N-(4-methyl-5-((3-(4-(quinolin-4-yl)piperazine-1-carbonyl)pyrrolidin-1-yl)sulfonyl)thiazol-2-yl)acetamide], for which the inhibition at 5 µM is above 90%. Still for that read-out and setting: the result for `CC(C)(C)c1n[nH]c(S(=O)(=O)N2CCC(C(=O)N3CCN(c4ccnc5cc(F)ccc45)CC3)C2)n1` (stereo not drawn) [Example 20, (1-((5-(tert-butyl)-4H-1,2,4-triazol-3-yl)sulfonyl)pyrrolidin-3-yl)(4-(7-fluoroquinolin-4-yl)piperazin-1-yl)methanone] reads above 90%; that for `Cc1nc(C)c(S(=O)(=O)N2CCC(C(=O)N3CCN(c4ccnc5ccccc45)CC3)C2)s1` (stereo not drawn) [Example 40, (1-((2,4-dimethylthiazol-5-yl)sulfonyl)pyrrolidin-3-yl)(4-(quinolin-4-yl)piperazin-1-yl)methanone], above 90%; that for `O=C(C1CN(S(=O)(=O)c2ccc(O)cc2)C1)N1CCN(c2ccnc3cc(F)ccc23)CC1` [Example 66, (4-(7-fluoroquinolin-4-yl)piperazin-1-yl)(1-((4-hydroxyphenyl)sulfonyl)azetidin-3-yl)methanone], above 90%.

With `O=C(C1CCN(S(=O)(=O)c2ncc[nH]2)C1)N1CCN(c2ccnc3ccccc23)CC1` (stereo not drawn) [Example 42, (1-((1H-imidazol-2-yl)sulfonyl)pyrrolidin-3-yl)(4-(quinolin-4-yl)piperazin-1-yl)methanone], the inhibition at 5 µM was above 90%. On the same count and under the same terms, the figure for `CC(=O)Nc1ccc(S(=O)(=O)N2CC[C@@H](C(=O)N3CCN(c4ccnc5cc(F)ccc45)CC3)C2)cc1` [Example 2, (R)—N-(4-((3-(4-(7-fluoroquinolin-4-yl)piperazine-1-carbonyl)pyrrolidin-1-yl)sulfonyl)phenyl)acetamide] is above 90%.

Consider `O=C([C@H]1CCN(S(=O)(=O)c2ccc([N+](=O)[O-])cc2)C1)N1CCN(c2ccnc3cc(F)ccc23)CC1` [Example 158, (S)-(4-(7-fluoroquinolin-4-yl)piperazin-1-yl)(1-((4-nitrophenyl)sulfonyl)pyrrolidin-3-yl)methanone], for which the inhibition at 5 µM was above 90%. As for `Cc1nn(C)c(C)c1S(=O)(=O)N1CCC(C(=O)N2CCN(c3ccnc4ccccc34)CC2)C1` (stereo not drawn) [Example 38, (4-(quinolin-4-yl)piperazin-1-yl)(1-((1,3,5-trimethyl-1H-pyrazol-4-yl)sulfonyl)pyrrolidin-3-yl)methanone], the inhibition at 5 µM is above 90%. The same measure, in the same setting: the result for `O=C(c1ncn[nH]1)N1CC[C@H](C(=O)N2CCN(c3ccnc4cc(F)ccc34)CC2)C1` [Example 161, (S)-(1-(4H-1,2,4-triazole-3-carbonyl)pyrrolidin-3-yl)(4-(7-fluoroquinolin-4-yl)piperazin-1-yl)methanone] reads above 90%; that for `Cc1ncc(-c2ccc(S(=O)(=O)N3CCC(C(=O)N4CCN(c5ccnc6ccccc56)CC4)C3)cc2)cn1` (stereo not drawn) [Example 33, (1-((4-(2-methylpyrimidin-5-yl)phenyl)sulfonyl)pyrrolidin-3-yl)(4-(quinolin-4-yl)piperazin-1-yl)methanone], above 90%. Still for that read-out and setting: the result for `O=C([C@H]1CCN(S(=O)(=O)c2nccn2CCO)C1)N1CCN(c2ccnc3cc(F)ccc23)CC1` [Example 148, (S)-(4-(7-fluoroquinolin-4-yl)piperazin-1-yl)(1-((1-(2-hydroxyethyl)-1H-imidazol-2-yl)sulfonyl)pyrrolidin-3-yl)methanone] reads above 90%; that for `Cn1cc(S(=O)(=O)N2CCC(C(=O)N3CCN(c4ccnc5ccccc45)CC3)C2)cn1` (stereo not drawn) [Example 44, (1-((1-methyl-1H-pyrazol-4-yl)sulfonyl)pyrrolidin-3-yl)(4-(quinolin-4-yl)piperazin-1-yl)methanone], above 90%.

Turning to `CC(=O)Nc1cccc(S(=O)(=O)N2CCC(C(=O)N3CCN(c4ccnc5cc(F)ccc45)CC3)C2)c1` (stereo not drawn) [Example 9, N-(3-((3-(4-(7-fluoroquinolin-4-yl)piperazine-1-carbonyl)pyrrolidin-1-yl)sulfonyl)phenyl)acetamide], the inhibition at 5 µM is above 90%. On the same count and under the same terms, the result for `CC(=O)Cn1cnc(S(=O)(=O)N2CC[C@H](C(=O)N3CCN(c4ccnc5cc(F)ccc45)CC3)C2)n1` [Example 142, (S)-1-(3-((3-(4-(7-fluoroquinolin-4-yl)piperazine-1-carbonyl)pyrrolidin-1-yl)sulfonyl)-1H-1,2,4-triazol-1-yl)propan-2-one] reads above 90%. The same measure, in the same setting: the result for `CC(=O)Nc1cccc(S(=O)(=O)N2CC(C(=O)N3CCN(c4ccnc5cc(F)ccc45)CC3)C2)c1` [Example 73, N-(3-((3-(4-(7-fluoroquinolin-4-yl)piperazine-1-carbonyl)azetidin-1-yl)sulfonyl)phenyl)acetamide] reads above 90%.
